Values joined by “and” are separate entries in the source; they are usually repeats but may differ in a detail not shown here. Equal entries are not always repeated. Where two headings read alike, the source gives them in different places.
Assays:
[1] = gadolinium complexes; cited from earlier work
[2] = literature; cited from earlier work
[3] = Absorption and luminescence (excitation, molar absorption, lifetime, quantal throughput); type: physicochemical; settings: for molar absorption coefficient: band at ˜36500 cm^−1; for ΦD2O (quantal throughput): in D2O; for ΦH2O (quantal throughput): in H2O; for τD2O (luminescence lifetime): in deuterized water; for τH2O (luminescence lifetime): in water; for emission quantal throughput F: relative to [Tb(dpa)3]^3−, buffer solution Tris 0.1M, 15% experimental error
From the text: The absorption spectra of bpatcn^3− and its complexes of Eu^III and Tb^III show an intense band at ˜36500 cm^−1 with a molar absorption coefficient of 9050 for Eu and of 9100 for Tb. These bands have been attributed to a combination of π-->π* and n-->π* centred transitions of the ligand.
FIGS. 3a and 3b show respectively the emission spectra of the solutions of the europium and terbium complexes at pH=7.4 (obtained after excitation at 273 nm) and the usual and typical transitions ^5D0-->^7FJ and ^5D4-->^7FJ (J=0-6) of the ions Eu^3+ and Tb^3+.
The emission quantal throughput of the complex of [Tb(bpatcn)(H2O)]
The long life time of the luminescence observed for the terbium complex in water (1.5 ms), excludes the presence of a de-energizing process including the energy return of the metal in its energized state towards the ligand.
Chem. Int. Ed. Engl., 1987, 26, 1266; G. Mathis, Clin. Chem., 1993, 39, 195

[4] = Stability constant of the Ca complex by direct titration of 1:1 metal:ligand; pCa; type: physicochemical; settings: for logβCaL (log KCaL): present work, 1:1 metal:H3bpatcn 5.10^−4 M, pH 2.5 to 8.5
From the text: (§1) The stability constants of the complexes of H3bpatcn of Gd^III and of […] have been calculated by direct titration of a mixture of 1:1 metal:H3bpatcn (5.10^−4 M) in a pH range between 2.5 and 8.5.
(§2) The titration data may be represented by the following equations:
Ca^2++bpatcn^3−⇄[Ca(bpatcn)]^− log KCaL=8.18(7)

[5] = De-protonation constants (pKa) by potentiometric titration; type: physicochemical; settings: 0.1 M KCl, 298 K
From the text: Both following equivalents protonate the carboxylate moieties associated with the pyridines (pKa2=2.3(2), pKa3=3.71(3).
The protonation curve and the structural data match a simultaneous partial protonation of the three nitrogens of the macrocycle as observed for the ligand H3nota, followed by the protonation of the carboxylate moieties. The protonation of the third amine and of the nitrogens of the pyridines takes place at lower pH and the related pKa has not been determined.

[6] = Stability constant of the Gd complex by direct titration of 1:1 metal:ligand; pGd; type: physicochemical; settings: for Log βGdL (log KGdL): present work, 1:1 metal:H3bpatcn 5.10^−4 M, pH 2.5 to 8.5
From the text: as §1, §2
Gd^3++bpatcn^3−⇄[Gd(bpatcn)] log KGdL=15.8(2);

[7] = cited from earlier work; for logβCaL: literature
[8] = cited from earlier work; for Log βGdL (log KGdL): literature
[9] = pH 7.4, [M]total=1 μM, [bpatcn]total=10 μM
[10] = commercial contrast agent, comparison

O=C(O)CN1CCN(CC(=O)O)CCN(CC(=O)O)CCN(CC(=O)O)CC1 (Gd complex, metal not drawn) [dota, 1,4,7,10-tetraazacyclododecane-N,N′,N″,N′″-tetra-acetic (H4dota) acid]
zero-field spin electronic relaxation [1]: 650 ps

C1CNCCNCCN1 [1,4,7-triazacyclononane]
pKa (highest, first listed) [2]: 10.42 | pKa (second listed) [2]: 6.82

O=C([O-])CN1CCN(Cc2cccc(C(=O)[O-])n2)CCN(Cc2cccc(C(=O)[O-])n2)CC1.[Eu+3] [Eu (bpatcn)]
ε [3]: 9050 M⁻¹ cm⁻¹ | λexc [3]: 273 nm | molar absorption coefficient [3]: 9050 M⁻¹ cm⁻¹ | ΦD2O (quantal throughput) [3]: 0.12 | ΦH2O (quantal throughput) [3]: 0.05 | τD2O (luminescence lifetime) [3]: 1.67 (4) ms | τH2O (luminescence lifetime) [3]: 0.542 (4) ms | emission quantal throughput F [3]: 5%

O=C(O)CN1CCN(Cc2cccc(C(=O)O)n2)CCN(Cc2cccc(C(=O)O)n2)CC1 [H3bpatcn]
pCa (−log [M]free) [4, 9]: 6.30 | logβCaL (log KCaL) [4]: 8.18(7) | pKa4 ([5]; macrocycle nitrogen): 5.42(3) | pKa5 ([5]; macrocycle nitrogen): 10.5(2) | pKa2 ([5]; picolinate carboxylate): 2.3(2) | pKa3 ([5]; picolinate carboxylate): 3.7(3) and 3.71(3) | pKa1 ([5]; protonation of the carboxylate moiety): 2.2(2) | increase in stability of the gadolinium complex (relative to nota complex) ([6]; due to two pyridyl nitrogen donors): 2.1 log units | pGd (−log [M]free) [6, 9]: 13.6 | Log βGdL (log KGdL) [6]: 15.8(2) | ε [3]: 7850 M⁻¹ cm⁻¹ | λexc [3]: 272 nm

O=C(O)CN1CCN(CC(=O)O)CCN(CC(=O)O)CC1 [H3nota, 1,4,7-triazacyclononane-N,N′,NN″-triacetic (H3nota) acid]
pKa (highest, first listed) [2]: 11.3(1) | pKa (second listed) [2]: 5.6 | pKa (third listed) [2]: 2.88(2) | logβCaL [7]: 8.92 | Log βGdL (log KGdL) [8]: 13.7

O=C(O)CN(CC(=O)O)CC(=O)O [H3nta, nitrilotriethanoic acid]
pKa (highest, first listed) [2]: 9.75 | pKa (second listed) [2]: 2.64 | pKa (third listed) [2]: 1.57 | Log βGdL (log KGdL) [8]: 11.4

O=C(O)c1cccc(CN(Cc2cccc(C(=O)O)n2)Cc2cccc(C(=O)O)n2)n1 [H3tpaa, α, α′, α″ nitrilotri(6-methyl-2-pyridinecarboxylic) acid]
pKa (highest, first listed) [2]: 4.11(6) | pKa (second listed) [2]: 3.3(1) | pKa (third listed) [2]: 2.5(2) | logβCaL [7]: 8.5(2) | Log βGdL (log KGdL) [8]: 10.2(2)

O=C(O)CN(CCN(CC(=O)O)Cc1cccc(C(=O)O)n1)Cc1cccc(C(=O)O)n1 [H4bpdea, N,N′-bis[(6-carboxypyridin-2-yl)methyl]-ethylene diamine-N,N′-diacetic (H4bpeda) acid]
pKa (fourth listed) [2]: 2.9(1) | pKa (highest, first listed) [2]: 8.5(1) | pKa (second listed) [2]: 5.2(2) | pKa (third listed) [2]: 3.5(1) | logβCaL [7]: 9.4(1) | Log βGdL (log KGdL) [8]: 15.1(3)

O=C(O)CN(CCN(CC(=O)O)CC(=O)O)CC(=O)O [H4edta]
pKa (fourth listed) [2]: 2.60 | pKa (highest, first listed) [2]: 10.19 | pKa (second listed) [2]: 6.13 | pKa (third listed) [2]: 2.69 | logβCaL [7]: 10.5 | Log βGdL (log KGdL) [8]: 17.4

O=C(O)CN(CCN(CC(=O)O)Cc1ccccn1)Cc1ccccn1 [N,N′-bis(2-pyridinylmethyl)ethylenediamine-N,N′-diacetate]
contribution of the 2-pyridylmethyl to stability of the Gd^III complex ([8]; estimated): 2.6 log units

O=C([O-])CN1CCN(Cc2cccc(C(=O)[O-])n2)CCN(Cc2cccc(C(=O)[O-])n2)CC1.[Tb+3] [Tb (bpatcn)]
ε [3]: 9100 M⁻¹ cm⁻¹ | λexc [3]: 273 nm | quantal throughput value Φ ([3]; as stated in text before the table): 48% | molar absorption coefficient [3]: 9100 M⁻¹ cm⁻¹ | ΦD2O (quantal throughput) [3]: 0.48 | ΦH2O (quantal throughput) [3]: 0.43 | τD2O (luminescence lifetime) [3]: 2.46 (7) ms | τH2O (luminescence lifetime) [3]: 1.5 ms and 1.49 (2) ms | emission quantal throughput F [3]: 43%

O=C(O)CN1CCN(Cc2cccc(C(=O)[O-])n2)CCN(Cc2cccc(C(=O)[O-])n2)CC1.[Ca+2] [[Ca(bpatcn)]^−]
logβCaL (log KCaL) [4]: 8.18(7)

O=C([O-])CN1CCN(Cc2cccc(C(=O)[O-])n2)CCN(Cc2cccc(C(=O)[O-])n2)CC1.[Gd+3] [[Gd(bpatcn)]]
Log βGdL (log KGdL) [6]: 15.8(2)

CNC(=O)CN(CCN(CCN(CC(=O)[O-])CC(=O)NC)CC(=O)[O-])CC(=O)[O-].[Gd+3] [[Gd(dtpa-bma)(H2O)]^−]
pCa [7, 10]: 6.39 | pGd [8, 10]: 15.8 | Log βGdL (log KGdL) [8]: 1.85

O=C([O-])c1cccc(CN2CCN(Cc3cccc(C(=O)[O-])n3)CCN(Cc3cccc(C(=O)[O-])n3)CC2)n1.[Gd+3] [[Gd(tpatcn)]]
zero-field spin electronic relaxation [1]: approx. 1500 ps

Source: patent US20100247448A1, “NOVEL LANTHANIDE LIGANDS AND COMPLEXES, AND USE THEREOF AS CONTRAST AGENTS” (COMMISSARIAT A L'ENERGIE ATOMIQUE, priority 2006, published 2010)
